pIC50, pKi: −log10 of the molar value.

Consider 36 compounds from ChEMBL document CHEMBL1909046, “DrugMatrix in vitro pharmacology data”.

Assay [1] has as its target Sodium-dependent noradrenaline transporter (Homo sapiens, UniProt P23975). The assay can be described thus: DRUGMATRIX: Norepinephrine Transporter radioligand binding (ligand: [125I] RTI-55). It is filed as cell membranes, MDCK, Membrane. To be noted: Not Active = under 50% inhibition at 10 µM; for IC50: mdck.
Assay [2] can be described thus: DRUGMATRIX: Glutamate, AMPA radioligand binding (ligand: [3H] AMPA). The format is cell membranes, Rattus norvegicus, Wistar, Cerebral cortex, Membrane. To be noted: Not Active = under 50% inhibition at 10 µM.

Sodium-dependent noradrenaline transporter, sequence (P23975 whole entry): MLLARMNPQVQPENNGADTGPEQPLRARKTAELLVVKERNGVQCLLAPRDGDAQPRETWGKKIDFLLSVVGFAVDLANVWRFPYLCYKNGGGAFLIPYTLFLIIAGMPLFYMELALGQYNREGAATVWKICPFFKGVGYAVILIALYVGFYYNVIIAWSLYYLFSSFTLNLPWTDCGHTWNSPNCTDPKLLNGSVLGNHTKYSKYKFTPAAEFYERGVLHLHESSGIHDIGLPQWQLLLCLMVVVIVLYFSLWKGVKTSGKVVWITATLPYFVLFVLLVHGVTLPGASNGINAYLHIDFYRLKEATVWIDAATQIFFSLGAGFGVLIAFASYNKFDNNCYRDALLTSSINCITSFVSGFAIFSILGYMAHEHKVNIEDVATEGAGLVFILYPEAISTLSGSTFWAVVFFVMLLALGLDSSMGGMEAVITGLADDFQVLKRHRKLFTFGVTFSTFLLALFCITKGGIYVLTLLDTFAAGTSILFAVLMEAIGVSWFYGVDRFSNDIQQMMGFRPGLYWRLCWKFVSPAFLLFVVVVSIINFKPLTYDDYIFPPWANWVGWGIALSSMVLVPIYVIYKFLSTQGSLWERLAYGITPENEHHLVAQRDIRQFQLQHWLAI

As for `COc1cc2c3cc1Oc1cc(ccc1O)C[C@@H]1c4c(cc(OC)c(O)c4Oc4ccc(cc4)C[C@@H]3N(C)CC2)CC[N+]1(C)C.[Cl-]`, the IC50 entry in assay [1] and in assay [2] was “Not Active” throughout. Also, the Ki result in assay [2] is given as “Not Active”.
As to `Sc1ncnc2nc[nH]c12` [MERCAPTOPURINE ANHYDROUS], the IC50 result in assay [1] is listed as “Not Active”. In assay [2], the IC50 entry is “Not Active” and the Ki result is reported as “Not Active”.
Consider `Nc1nc2c(ncn2COCCO)c(=O)[nH]1` [ACYCLOVIR], for which the IC50 result in assay [1] was “Not Active”. For the same compound, in assay [2], the IC50 result was “Not Active” and the Ki result is listed as “Not Active”.
`O=C(O)CCCc1ccc(N(CCCl)CCCl)cc1` [CHLORAMBUCIL]: in assay [1], the IC50 entry is given as “Not Active”. For the same compound, in assay [2], the IC50 result was “Not Active” and the Ki entry is recorded as “Not Active”.
`CC(C)(Oc1ccc(Cl)cc1)C(=O)O` [CLOFIBRIC ACID]: the IC50 result in assay [1] and in assay [2] was “Not Active” each time. Also, the Ki entry in assay [2] was “Not Active”.
On to `CC1(C)O[C@@H]2C[C@H]3[C@@H]4CCC5=CC(=O)CC[C@]5(C)[C@@]4(F)[C@@H](O)C[C@]3(C)[C@]2(C(=O)CCl)O1` [HALCINONIDE], for which the IC50 entry in assay [1] is “Not Active”. In addition, in assay [2], the IC50 entry is given as “Not Active” and the Ki result is recorded as “Not Active”.
Regarding `CC(C)C(Br)C(=O)NC(N)=O` (stereo not drawn) [BROMISOVALUM], the IC50 result in assay [1] is on record as “Not Active”. Further, in assay [2], the IC50 result was “Not Active” and the Ki entry is reported as “Not Active”.
On to `O=C1CC[C@@H](N2C(=O)c3ccccc3C2=O)C(=O)N1`, for which the IC50 result in assay [1] is reported as “Not Active”. Besides, in assay [2], the IC50 entry is given as “Not Active” and the Ki result was “Not Active”.
Regarding `Cc1c(O)c(=O)ccn1C` [DEFERIPRONE], the IC50 result in assay [1] is “Not Active”. Further, in assay [2], the IC50 entry is “Not Active” and the Ki result is given as “Not Active”.
For `NC1=NC(=O)C(c2ccccc2)O1` (stereo not drawn) [PEMOLINE], the IC50 result in assay [1] is reported as “Not Active”. Further, in assay [2], the IC50 result is on record as “Not Active” and the Ki entry was “Not Active”.
As to `CN(C)c1nc(N(C)C)nc(N(C)C)n1` [ALTRETAMINE], the IC50 entry in assay [1] is on record as “Not Active”. Also, in assay [2], the IC50 entry is given as “Not Active” and the Ki result is “Not Active”.
Consider `CCn1cc(C(=O)O)c(=O)c2cc(F)c(N3CCNCC3)cc21` [NORFLOXACIN], for which the IC50 result in assay [1] is given as “Not Active”. Moreover, in assay [2], the IC50 result is recorded as “Not Active” and the Ki result was “Not Active”.
In the case of `Clc1cccc(Cl)c1NC1=NCCN1` [CLONIDINE], the IC50 entry in assay [1] was “Not Active”. Besides, in assay [2], the IC50 entry is “Not Active” and the Ki result is reported as “Not Active”.
For the compound `CN(C)CCCN1c2ccccc2Sc2ccc(Cl)cc21` [CHLORPROMAZINE], in assay [2], the IC50 entry is listed as “Not Active” and the Ki result is given as “Not Active”.
Broadly, the pIC50 is the negative decadic logarithm of the IC50, by convention in mol/L. Broadly, the pKi is the negative decadic logarithm of the Ki, by convention in mol/L. With `CN(C)CCCN1c2ccccc2Sc2ccccc21` [PROMAZINE], the pIC50 in assay [1] (read-out: IC50) is 7.89. Besides, the pKi in assay [1] (read-out: Ki) is 7.89. Besides, in assay [2], the IC50 entry was “Not Active” and the Ki entry is recorded as “Not Active”.
Consider `C[C@](N)(Cc1ccc(O)c(O)c1)C(=O)O` [METHYLDOPA], for which the IC50 result in assay [1] and in assay [2] was “Not Active” throughout. For the same compound, in assay [2], the Ki result is given as “Not Active”.
Take `CCOC(=O)C1=C(COCCN)NC(C)=C(C(=O)OC)C1c1ccccc1Cl` (stereo not drawn) [AMLODIPINE]: the IC50 result in assay [1] is “Not Active”. Moreover, in assay [2], the IC50 entry is given as “Not Active” and the Ki entry is “Not Active”.
Turning to `CC(O)CO` (stereo not drawn) [PROPYLENE GLYCOL], the IC50 entry in assay [1] is recorded as “Not Active”. Moreover, in assay [2], the IC50 result is given as “Not Active” and the Ki entry is recorded as “Not Active”.
On to `CCCC1O[C@@H]2C[C@H]3[C@@H]4CCC5=CC(=O)C=C[C@]5(C)[C@H]4[C@@H](O)C[C@]3(C)[C@]2(C(=O)CO)O1` (stereo partly drawn) [BUDESONIDE], for which, in assay [1], the IC50 entry was “Not Active”. In assay [2], the IC50 entry is “Not Active” and the Ki result is reported as “Not Active”.
Turning to `CC1Cc2ccccc2N1NC(=O)c1ccc(Cl)c(S(N)(=O)=O)c1` (stereo not drawn) [INDAPAMIDE], the IC50 result in assay [1] is recorded as “Not Active”. In assay [2], the IC50 result was “Not Active” and the Ki entry is recorded as “Not Active”.
As to `Cc1ccccc1N1C(=O)c2cc(S(N)(=O)=O)c(Cl)cc2NC1C` (stereo not drawn) [METOLAZONE], the IC50 entry in assay [1] and in assay [2] was “Not Active” throughout. Further, the Ki entry in assay [2] is recorded as “Not Active”.
In the case of `N=C(N)NCCN1CCCCCCC1` [GUANETHIDINE], the IC50 result in assay [1] is on record as “Not Active”. In assay [2], the IC50 entry is recorded as “Not Active” and the Ki entry is “Not Active”.
Turning to `O=c1[nH]c(=O)n([C@H]2C[C@H](O)[C@@H](CO)O2)cc1I` [IDOXURIDINE], the IC50 result in assay [1] is “Not Active”. Also, in assay [2], the IC50 entry is on record as “Not Active” and the Ki entry is reported as “Not Active”.
For the compound `C[C@H](CCC(=O)O)[C@H]1CC[C@H]2[C@@H]3[C@H](O)C[C@@H]4C[C@H](O)CC[C@]4(C)[C@H]3C[C@H](O)[C@]12C` [CHOLIC ACID], the IC50 entry in assay [1] is “Not Active”. In assay [2], the IC50 entry is “Not Active” and the Ki result was “Not Active”.
Regarding `O=C(CCCN1CC=C(n2c(=O)[nH]c3ccccc32)CC1)c1ccc(F)cc1` [DROPERIDOL], the IC50 result in assay [1] and in assay [2] was “Not Active” in each case. For the same compound, the Ki entry in assay [2] is given as “Not Active”.
Consider `CC(=O)O[C@@]12CO[C@@H]1C[C@H](O)[C@@]1(C)C(=O)[C@H](O)C3=C(C)[C@@H](OC(=O)[C@H](O)[C@@H](NC(=O)OC(C)(C)C)c4ccccc4)C[C@@](O)([C@@H](OC(=O)c4ccccc4)[C@H]21)C3(C)C.O.O.O` [DOCETAXEL], for which the IC50 entry in assay [1] is recorded as “Not Active”. Also, in assay [2], the IC50 result is reported as “Not Active” and the Ki entry is “Not Active”.
With `C[C@H]1c2cccc(O)c2C(=O)C2=C(O)[C@]3(O)C(=O)C(C(N)=O)=C(O)[C@@H](N(C)C)[C@@H]3[C@@H](O)[C@@H]21.O` [DOXYCYCLINE], the IC50 result in assay [1] is “Not Active”. For the same compound, in assay [2], the IC50 result was “Not Active” and the Ki result is given as “Not Active”.
Take `NCCCCCC(=O)O` [AMINOCAPROIC ACID]: the IC50 entry in assay [1] is “Not Active”. For the same compound, in assay [2], the IC50 result was “Not Active” and the Ki entry is “Not Active”.
As to `CCC(C)n1ncn(-c2ccc(N3CCN(c4ccc(OCC5COC(Cn6cncn6)(c6ccc(Cl)cc6Cl)O5)cc4)CC3)cc2)c1=O` (stereo not drawn) [ITRACONAZOLE], the IC50 entry in assay [1] is recorded as “Not Active”. Besides, in assay [2], the IC50 result was “Not Active” and the Ki result is “Not Active”.
For `Cc1c(C)c2c(c(C)c1O)CC[C@@](C)(CCC[C@H](C)CCC[C@H](C)CCCC(C)C)O2` [ALPHA-TOCOPHEROL], in assay [1], the IC50 entry was “Not Active”. Besides, in assay [2], the IC50 entry is recorded as “Not Active” and the Ki entry is reported as “Not Active”.
Regarding `CNNCc1ccc(C(=O)NC(C)C)cc1` [PROCARBAZINE], the IC50 result in assay [1] and in assay [2] was “Not Active” each time. Besides, the Ki entry in assay [2] is “Not Active”.
On to `Cc1ccc(/N=C/N(C)/C=N/c2ccc(C)cc2C)c(C)c1` [AMITRAZ], for which, in assay [1], the IC50 entry is given as “Not Active”. Besides, in assay [2], the IC50 result is listed as “Not Active” and the Ki result is “Not Active”.
As for `CNCCc1ccccn1` [BETAHISTINE], the IC50 entry in assay [1] was “Not Active”. In assay [2], the IC50 result is listed as “Not Active” and the Ki entry was “Not Active”.
In the case of `OC(Cn1cncn1)(Cn1cncn1)c1ccc(F)cc1F` [FLUCONAZOLE], the IC50 entry in assay [1] is “Not Active”. In addition, in assay [2], the IC50 result is reported as “Not Active” and the Ki entry was “Not Active”.
As to `Nc1nc(N)nc(-c2cc(Cl)ccc2Cl)n1.O=C(O)/C=C\C(=O)O` [IRSOGLADINE MALEATE], the IC50 entry in assay [1] and in assay [2] was “Not Active” in each case. The Ki result in assay [2] is “Not Active”.
For the compound `Cc1cc(C2CCCCC2)n(O)c(=O)c1` [CICLOPIROX], the IC50 result in assay [1] is “Not Active”. Moreover, in assay [2], the IC50 result is “Not Active” and the Ki result is recorded as “Not Active”.
